This is an account of results in US20250152585A1, “PHARMACEUTICAL COMPOUND” (Duke Street Bio Limited, priority 2022, published 2025).

Assay [1] deals with T1, full length N-terminally FLAG-tagged PARP1 (Homo sapiens, UniProt P09874). Put plainly: PARP1 biochemical DELFIA assay (auto-PARylation). Also on record: recombinant full length human N-terminally FLAG-tagged PARP1.
For assay [2], the target named is T2, N-terminally FLAG-tagged PARP2 (amino acids 1-583) (Homo sapiens, UniProt Q9UGN5).
T2 construct: N-terminally FLAG-tagged PARP2 (amino acids 1-583)
T2 sequence (Q9UGN5 whole entry, the tested form may be a part): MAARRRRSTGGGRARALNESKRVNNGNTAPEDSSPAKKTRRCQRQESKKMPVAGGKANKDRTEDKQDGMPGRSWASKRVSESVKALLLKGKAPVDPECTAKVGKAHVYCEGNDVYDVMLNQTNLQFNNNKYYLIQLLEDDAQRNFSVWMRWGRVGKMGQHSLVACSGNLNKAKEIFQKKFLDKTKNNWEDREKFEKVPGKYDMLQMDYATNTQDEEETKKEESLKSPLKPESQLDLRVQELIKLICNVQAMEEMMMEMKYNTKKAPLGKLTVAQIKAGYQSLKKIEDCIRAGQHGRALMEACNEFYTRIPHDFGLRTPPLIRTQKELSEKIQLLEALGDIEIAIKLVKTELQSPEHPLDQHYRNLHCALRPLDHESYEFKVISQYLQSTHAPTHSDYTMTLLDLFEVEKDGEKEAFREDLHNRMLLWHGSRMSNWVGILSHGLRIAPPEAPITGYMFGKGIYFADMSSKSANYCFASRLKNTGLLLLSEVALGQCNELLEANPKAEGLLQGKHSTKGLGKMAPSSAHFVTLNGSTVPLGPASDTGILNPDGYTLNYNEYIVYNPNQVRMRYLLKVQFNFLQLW
Nature of the assay: PARP2 probe displacement HTRF assay. To be noted: binned Kd. Type of assay: binding. The protocol:
Data analysis was performed identical as for PARP1.

The target in assay [3] is T1, full length N-terminally FLAG-tagged PARP1. Put plainly: PARP1 probe displacement HTRF assay. To be noted: for Kd: binned Kd; for Selectivity: PARP1 over PARP2, ratio Kd (PARP2)/Kd (PARP1).
Where [4] appears, read: binned IC50, PARP1 biochemical DELFIA assay.
[5] abbreviates: PARP1 HTRF, PARP1 probe displacement HTRF.
Setting [6] is: read-out: PARP1 HTRF, PARP1 probe displacement HTRF.
[7] abbreviates: binned IC50, biochemical auto-PARylation assay.
Setting [8] is: read-out: PARP1 HTRF, probe displacement HTRF.
Where [9] appears, read: PARP1 HTRF, probe displacement HTRF.

Like-named read-outs stand apart in the source and are kept apart here. Some results are limits rather than exact numbers.

T1 sequence (P09874 whole entry, the tested form may be a part): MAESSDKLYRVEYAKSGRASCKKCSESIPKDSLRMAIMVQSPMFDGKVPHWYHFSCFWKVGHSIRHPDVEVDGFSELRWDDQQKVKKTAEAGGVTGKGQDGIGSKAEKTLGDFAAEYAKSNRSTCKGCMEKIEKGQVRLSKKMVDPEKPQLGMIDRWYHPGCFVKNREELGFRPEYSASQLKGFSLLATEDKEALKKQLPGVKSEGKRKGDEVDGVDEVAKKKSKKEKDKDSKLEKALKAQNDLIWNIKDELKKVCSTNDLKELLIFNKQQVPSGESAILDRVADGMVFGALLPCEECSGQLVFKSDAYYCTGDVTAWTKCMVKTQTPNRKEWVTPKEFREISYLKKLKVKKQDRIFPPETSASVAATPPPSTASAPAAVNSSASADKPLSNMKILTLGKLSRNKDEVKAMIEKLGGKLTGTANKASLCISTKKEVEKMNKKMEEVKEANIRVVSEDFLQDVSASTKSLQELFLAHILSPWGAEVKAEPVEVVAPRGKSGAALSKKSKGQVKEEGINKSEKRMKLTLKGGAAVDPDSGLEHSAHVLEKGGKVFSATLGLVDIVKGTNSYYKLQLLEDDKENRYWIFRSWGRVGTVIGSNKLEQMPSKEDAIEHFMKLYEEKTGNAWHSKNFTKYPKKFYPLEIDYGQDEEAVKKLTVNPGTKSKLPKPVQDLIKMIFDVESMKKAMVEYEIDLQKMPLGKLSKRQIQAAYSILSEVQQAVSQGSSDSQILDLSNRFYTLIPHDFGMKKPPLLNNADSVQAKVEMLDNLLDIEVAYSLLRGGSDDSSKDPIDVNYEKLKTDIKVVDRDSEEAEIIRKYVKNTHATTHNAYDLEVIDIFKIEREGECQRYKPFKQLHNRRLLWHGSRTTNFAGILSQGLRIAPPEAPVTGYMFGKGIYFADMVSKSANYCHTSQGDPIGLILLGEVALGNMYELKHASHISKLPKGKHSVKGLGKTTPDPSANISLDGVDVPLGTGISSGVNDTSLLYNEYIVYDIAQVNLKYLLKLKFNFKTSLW

What is called IC50 is the concentration that inhibits the measured activity by half. `CNC(=O)c1ccc(N2CCC(N3CCC(c4nc5c(c(=O)[nH]4)CCCN5C)C3)CC2)cn1` (single isomer, unassigned) [Compound 208b, N-methyl-5-(4-(3-(8-methyl-4-oxo-3,4,5,6,7,8-hexahydropyrido[2,3-d]pyrimidin-2-yl)pyrrolidin-1-yl)piperidin-1-yl)picolinamide]: the IC50 in assay [1] (setting [4]) is < 10 nM. Also, the Kd in assay [2] (PARP2 probe displacement HTRF) was 10 to 100 nM; in assay [3] (setting [5]), < 10 nM. Further, the Selectivity result in assay [3] (probe displacement HTRF) is “++ (++ indicates a value of 50 to less than 100)”.

As to `CNC(=O)c1ccc(N2CCC(N3CCCC(c4nc5onc(C)c5c(=O)[nH]4)C3)CC2)cn1` (single isomer, unassigned) [Compound 159a], the IC50 in assay [1] (setting [4]) was > 10000 nM. In addition, the Kd in assay [2] (PARP2 probe displacement HTRF) and in assay [3] (setting [6]) was > 10000 nM in each case. Moreover, the Selectivity entry in assay [3] (probe displacement HTRF) is “− (− indicates a value of less than 10)”.

For `CNC(=O)c1cc(Cl)c(N2CCC(N3CCC(c4cc5ccc(F)cc5c(=O)[nH]4)C3)CC2)cn1` (single isomer, unassigned) [Compound 236a], the IC50 in assay [1] (setting [7]) lay within 10 to 100 nM. For the same molecule, the Kd is 100 to 1000 nM in assay [2] (probe displacement HTRF) and 10 to 100 nM in assay [3] (setting [8]). Also, the Selectivity result in assay [3] (probe displacement HTRF) is recorded as “+ (+ indicates a value of 10 to less than 50)”.

Consider `CCc1cnc(-c2cnn(C3CCN(c4ccc(C(=O)NC)nc4)CC3)c2)[nH]c1=O` [Compound 20], for which the IC50 in assay [1] (setting [4]) was in the range of 10 to 100 nM. The Kd in assay [2] (PARP2 probe displacement HTRF) is > 10000 nM; in assay [3] (setting [5]) it was 10 to 100 nM. Besides, the Selectivity entry in assay [3] (probe displacement HTRF) was “++ (++ indicates a value of 50 to less than 100)”.

Consider `CCc1ccc(C2CCN(C3CCN(c4ccc(C(=O)NCCF)nc4)CC3)C2)[nH]c1=O` (single isomer, unassigned) [Compound 165b], for which the IC50 in assay [1] (setting [4]) lay in the range of 10 to 100 nM. Besides, the Kd was 1000 to 10000 nM in assay [2] (PARP2 probe displacement HTRF) and 10 to 100 nM in assay [3] (setting [6]). Moreover, the Selectivity entry in assay [3] (probe displacement HTRF) is recorded as “+++ (+++ indicate a value of at least 100)”.

Take `CCc1ccc(C2CCN(C3CCN(c4ccc(C#N)cc4)CC3)C2)[nH]c1=O` (single isomer, unassigned) [Compound 317b]: the IC50 in assay [1] (setting [7]) is < 10 nM. The results for the Kd in assay [2] (probe displacement HTRF) and in assay [3] (setting [8]) were 100 to 1000 nM and < 10 nM, respectively. For the same molecule, the Selectivity entry in assay [3] (probe displacement HTRF) is on record as “+++ (+++ indicate a value of at least 100)”.

On to `CCc1ccc(C2CCN(C3CCN(c4ccc(C(=O)NC)nn4)CC3)C2)[nH]c1=O` (single isomer, unassigned) [Compound 210b], for which, in assay [1] (setting [4]), the IC50 is < 10 nM. For the same molecule, the Kd was 1000 to 10000 nM in assay [2] (PARP2 probe displacement HTRF) and < 10 nM in assay [3] (setting [6]). The Selectivity result in assay [3] (probe displacement HTRF) is given as “+++ (+++ indicate a value of at least 100)”.

For the molecule `CCc1ccc(C2CCN(C3CCN(c4ccc(C(=O)NC)nc4F)CC3)C2)[nH]c1=O` (single isomer, unassigned) [Compound 151b, 5-(4-(3-(5-ethyl-6-oxo-1,6-dihydropyridin-2-yl)pyrrolidin-1-yl)piperidin-1-yl)-6-fluoro-N-methylpicolinamide], the IC50 in assay [1] (setting [4]) was < 10 nM. Moreover, the Kd is > 10000 nM in assay [2] (PARP2 probe displacement HTRF) and < 10 nM in assay [3] (setting [6]). Besides, in assay [3] (probe displacement HTRF), the Selectivity entry is “+++ (+++ indicate a value of at least 100)”.

Turning to `CNC(=O)c1ccc(N2CCC(N3CCC(c4nc5ccccc5c(=O)[nH]4)C3)CC2)c(C)n1` (single isomer, unassigned) [Compound 125a], the IC50 in assay [1] (setting [4]) was < 10 nM. The Kd is 1000 to 10000 nM in assay [2] (PARP2 probe displacement HTRF) and < 10 nM in assay [3] (setting [6]). Besides, the Selectivity result in assay [3] (probe displacement HTRF) is “+++ (+++ indicate a value of at least 100)”.

With `CNC(=O)c1cc(C)c(N2CCC(N3CCC(c4cc5ccncc5c(=O)[nH]4)C3)CC2)c(C)n1` (racemic) [Compound 211rac], the IC50 in assay [1] (setting [4]) was < 10 nM. The figures for the Kd in assay [2] (PARP2 probe displacement HTRF) and in assay [3] (setting [6]) were 100 to 1000 nM and < 10 nM, respectively. Besides, the Selectivity result in assay [3] (probe displacement HTRF) is given as “+++ (+++ indicate a value of at least 100)”.

Take `CNC(=O)c1ccc(N2CCC(N3CCC(c4nc5c(c(=O)[nH]4)CCC5)C3)CC2)cn1` (single isomer, unassigned) [Compound 283b]: in assay [1] (setting [7]), the IC50 is < 10 nM. Besides, the Kd in assay [2] (probe displacement HTRF) was 1000 to 10000 nM; in assay [3] (setting [8]) it was < 10 nM. Besides, in assay [3] (probe displacement HTRF), the Selectivity result is reported as “+++ (+++ indicate a value of at least 100)”.

For `CNC(=O)c1ccc(N2CCC(N3CCCC(c4nc5ccncc5c(=O)[nH]4)C3)CC2)cn1` (single isomer, unassigned) [Compound 93a], in assay [1] (setting [4]), the IC50 is 100 to 1000 nM. For the same molecule, the Kd in assay [2] (PARP2 probe displacement HTRF) was > 10000 nM; in assay [3] (setting [6]) it was 100 to 1000 nM. In addition, the Selectivity entry in assay [3] (probe displacement HTRF) was “+ (+ indicates a value of 10 to less than 50)”.

Take `CCc1cnc(C23CC(C2)N(C2CCN(c4ccc(C(=O)NC)nc4C(F)(F)F)CC2)C3)[nH]c1=O` [Compound 310]: in assay [1] (setting [7]), the 50% inhibitory concentration (IC50) fell in the range of 10 to 100 nM. The values for the Kd in assay [2] (probe displacement HTRF) and in assay [3] (setting [9]) were > 10000 nM and < 10 nM, respectively. Besides, the Selectivity entry in assay [3] (probe displacement HTRF) was “+++ (+++ indicate a value of at least 100)”.

In the case of `CNC(=O)c1ccc(OCCN2CCC(c3nc4ccccc4c(=O)[nH]3)C2)cn1` (single isomer, unassigned) [Compound 62b], the IC50 in assay [1] (setting [4]) lay within 100 to 1000 nM. For the same molecule, the results for the Kd in assay [2] (PARP2 probe displacement HTRF) and in assay [3] (setting [6]) were 1000 to 10000 nM and 100 to 1000 nM, respectively. For the same molecule, the Selectivity entry in assay [3] (probe displacement HTRF) was “− (− indicates a value of less than 10)”.

In the case of `CNC(=O)c1ccc(N2CCC(N3CCC(c4nc5ccccc5c(=O)[nH]4)C3)CC2)nc1` (single isomer, unassigned) [Compound 46b], the IC50 in assay [1] (setting [4]) was 100 to 1000 nM. Besides, the Kd in assay [2] (PARP2 probe displacement HTRF) and in assay [3] (setting [6]) was 100 to 1000 nM throughout. Also, the Selectivity entry in assay [3] (probe displacement HTRF) was “− (− indicates a value of less than 10)”.

Regarding `CNC(=O)c1ccc(N2CCC(N3CC4(c5nc6ncc(F)cc6c(=O)[nH]5)CC3C4)CC2)c(F)n1` [Compound 369], the IC50 in assay [1] (setting [7]) was < 10 nM. The figures for the Kd in assay [2] (probe displacement HTRF) and in assay [3] (setting [9]) were 1000 to 10000 nM and < 10 nM, respectively. For the same molecule, the Selectivity entry in assay [3] (probe displacement HTRF) is given as “+++ (+++ indicate a value of at least 100)”.

As to `CCc1nc(C(=O)NC)ccc1N1CCC(N2CCC(c3ccc(CC)c(=O)[nH]3)C2)CC1` (racemic) [Compound 134rac], in assay [1] (setting [4]), the IC50 is < 10 nM. In addition, the Kd in assay [2] (PARP2 probe displacement HTRF) was > 10000 nM; in assay [3] (setting [6]), < 10 nM. In assay [3] (probe displacement HTRF), the Selectivity entry was “+++ (+++ indicate a value of at least 100)”.

With `CC(=O)NC(=O)c1ccc(N2CCC(N3CCC(c4cc5ccccc5c(=O)[nH]4)C3)CC2)cn1` (single isomer, unassigned) [Compound 333b], in assay [1] (setting [7]), the IC50 fell in the range of 10 to 100 nM. Moreover, the Kd in assay [2] (probe displacement HTRF) lay within 1000 to 10000 nM; in assay [3] (setting [8]), 10 to 100 nM. For the same molecule, in assay [3] (probe displacement HTRF), the Selectivity result was “+++ (+++ indicate a value of at least 100)”.

With `CNC(=O)c1ccc(N2CCC(N3CCC(c4cc5cc(O)ccc5c(=O)[nH]4)C3)CC2)cn1` (single isomer, unassigned) [Compound 357b], the 50% inhibitory concentration (IC50) in assay [1] (setting [7]) lay in the range of 10 to 100 nM. Further, the Kd is 1000 to 10000 nM in assay [2] (probe displacement HTRF) and < 10 nM in assay [3] (setting [8]). Moreover, the Selectivity entry in assay [3] (probe displacement HTRF) is on record as “+++ (+++ indicate a value of at least 100)”.

With `CNC(=O)c1ccc(N2CCC(N3CCCC(c4nc5c(c(=O)[nH]4)CCCC5)C3)CC2)cn1` (single isomer, unassigned) [Compound 146a], the IC50 in assay [1] (setting [4]) lay in the range of 100 to 1000 nM. The figures for the Kd in assay [2] (PARP2 probe displacement HTRF) and in assay [3] (setting [6]) were 1000 to 10000 nM and 100 to 1000 nM, respectively. In addition, the Selectivity entry in assay [3] (probe displacement HTRF) is “− (− indicates a value of less than 10)”.

On to `O=c1[nH]c(C2CCN(C3CCN(c4ccc(Cl)cc4)CC3)C2)nc2ccccc12` (single isomer, unassigned) [Compound 43a], for which, in assay [1] (setting [4]), the IC50 was 100 to 1000 nM. For the same molecule, the Kd is 100 to 1000 nM in assay [2] (PARP2 probe displacement HTRF) and 10 to 100 nM in assay [3] (setting [6]). Also, the Selectivity result in assay [3] (probe displacement HTRF) was “− (− indicates a value of less than 10)”.
